Experimental data taken from patent publication US5872107A, “Treatment of urogenital cancer with boron neutron capture therapy” (Emory University, priority 1997, dated 1999).

Experiments:
[1] = Toxicity study: weight change and survival of normal Swiss mice; assay type: in vivo, Swiss female mice; settings: 30 mg/kg/day i.p.
Experimental: A toxicity study was conducted on 6-week-old Swiss female mice treated with CDU and CFAU at 30 mg/kg/day. The compounds were prepared in sterile DMSO and injected intraperitoneally (0.1 mL). DMSO and water were used as controls, with the same injection volume as that used for the CDU and CFAU solutions. The dosing schedule used was once a day for 6 days, and the mice were weighed biweekly for 28 days. Results shown in Table 3 somewhat correlate with the cytotoxicity assays in vitro.

[2] = typical nucleoside analogues; cited from earlier work

| Molecule | weight loss after 1 week (in words) ([1]; CFAU and CDU compared) | relative toxicity as monitored by survival outcome (in words) ([1]; CFAU versus CDU) | day of death of mouse ([1]; one mouse of five) | weight recovery at 4 weeks (in words) ([1]; surviving animals) | % of weight gained or lost on week 1 ([1]; week 1, once a day for 6 days) | % of weight gained or lost on week 2 ([1]; week 2, once a day for 6 days) | % of weight gained or lost on week 3 ([1]; week 3, once a day for 6 days) | % of weight gained or lost on week 4 ([1]; week 4, once a day for 6 days) | survival at week 4, alive/total ([1]; week 4, once a day for 6 days) | survival at week 4 (%) ([1]; week 4, once a day for 6 days, 40320 min) | reabsorption by the renal tubule (in words) [2] |
| --- | --- | --- | --- | --- | --- | --- | --- | --- | --- | --- | --- |
| 5-o-carboranyl-1-(2-deoxy-2-fluoro-β-D-arabinofuranosyl)uracil [CFAU] | comparable weight loss after 1 week | more toxic than CDU | 7 days | all the surviving animals recovered their weight loss to control untreated levels | -6.8% | -0.4% | 5.0% | 9.6% | 4/5 | 80% | – |
| Cc1cn([C@H]2C[C@H](N=[N+]=[N-])[C@@H](CO)O2)c(=O)[nH]c1=O [AZT, 3'-azido-3'-deoxythymidine] | – | – | – | – | – | – | – | – | – | – | not reabsorbed appreciably by the renal tubule |
| [N-]=[N+]=N[C@H]1C[C@H](n2ccc(=O)[nH]c2=O)O[C@@H]1CO [AZddU, 3'-azido-2',3'-dideoxyuridine] | – | – | – | – | – | – | – | – | – | – | not reabsorbed appreciably by the renal tubule |
